Assays:
[1] = molecular target: Mu-type opioid receptor (Cavia porcellus, UniProt P97266); assay: Binding affinity of compound was measured on Opioid receptor mu 1 by competitive inhibition of radioligand [3H]DAMGO using cloned receptors transiently expressed on COS-7 (monkey kidney) cells; assay type: cell-based
[2] = molecular target: Delta-type opioid receptor (Homo sapiens, UniProt P41143); assay: Binding affinity of compound was measured on Opioid receptor delta 1 by competitive inhibition of radioligand [3H]DPDPE using cloned receptors transiently expressed on COS-7 (monkey kidney) cells; assay type: cell-based
[3] = molecular target: Kappa-type opioid receptor (Cavia porcellus, UniProt P41144); assay: Binding affinity of compound was measured on Opioid receptor kappa 1 by competitive inhibition of radioligand [3H]diprenorphine using cloned receptors transiently expressed on COS-7 (monkey kidney) cells; assay type: cell-based
[4] = species: Cavia porcellus; assay: Opioid activity in guinea pig ileum; assay type: functional

CC[C@H](C)[C@H](NC(=O)[C@H](CCCNC(=N)N)NC(=O)[C@@H]1CCCNC(=O)C[C@@H](NC(=O)CNC(=O)[C@@H](N)Cc2ccc(O)cc2)C(=O)N[C@@H](Cc2ccccc2)C(=O)N[C@@H](CC(C)C)C(=O)N1)C(=O)N[C@@H](CCCNC(=N)N)C(=O)N1CCC[C@H]1C(=O)N[C@@H](CCCCN)C(=O)N[C@@H](CC(C)C)C(=O)N[C@@H](CCCCN)C(N)=O was tested, and the Ki [1] was 320 nM, the Ki [2] was 320 nM and the Ki [3] was 200 nM. The IC50 [4] was 2700 nM.

Reference: ChEMBL document CHEMBL1130436, “Synthesis and opioid activity of conformationally constrained dynorphin A analogues. 2. Conformational constraint in the "address" sequence” (J Med Chem, 1997)
